The results in this text go back to ChEMBL document CHEMBL4049391, “Vicinal diaryl azole-based urea derivatives as potential cholesterol lowering agents acting through inhibition of SOAT enzymes” (Eur J Med Chem, 2017).

In general, inhibition refers to the drop in the measured response relative to a control, in per cent. A word on the IC50: it is the concentration needed to halve the response being measured. The term pIC50 denotes the IC50 on a negative log10 scale, so that one unit is a factor of ten.

Experiment [1] is filed under the species Rattus norvegicus. The experiment can be described thus: Inhibition of rat microsomal SOAT assessed as reduction in cholesteryl oleate formation from oleoyl co-enzyme A at 10 uM pretreated for 15 mins followed by oleoyl co-enzyme A addition measured after 10 mins by HPTLC method relative to control.
Experiment [2] deals with Rattus norvegicus. Nature of the experiment: Anti-hypercholesterolemic activity in poloxamer-407-induced Wistar rat lipoprotein lipase inhibition model assessed as fold change in triglyceride level at 20 mg/kg administered as single dose via oral gavage pretreated for 4 hrs followed by poloxamer-407 induction measured over 24 hrs (reference value: 80). In kind it is functional.

The nature of experiment [3]: Inhibition of rat microsomal SOAT assessed as reduction in cholesteryl oleate formation from oleoyl co-enzyme A pretreated for 15 mins followed by oleoyl co-enzyme A addition after 10 mins by HPTLC method.
Experiment [4] addresses T1, Sterol O-acyltransferase 2 (Homo sapiens, UniProt O75908).
T1 sequence (O75908 whole entry): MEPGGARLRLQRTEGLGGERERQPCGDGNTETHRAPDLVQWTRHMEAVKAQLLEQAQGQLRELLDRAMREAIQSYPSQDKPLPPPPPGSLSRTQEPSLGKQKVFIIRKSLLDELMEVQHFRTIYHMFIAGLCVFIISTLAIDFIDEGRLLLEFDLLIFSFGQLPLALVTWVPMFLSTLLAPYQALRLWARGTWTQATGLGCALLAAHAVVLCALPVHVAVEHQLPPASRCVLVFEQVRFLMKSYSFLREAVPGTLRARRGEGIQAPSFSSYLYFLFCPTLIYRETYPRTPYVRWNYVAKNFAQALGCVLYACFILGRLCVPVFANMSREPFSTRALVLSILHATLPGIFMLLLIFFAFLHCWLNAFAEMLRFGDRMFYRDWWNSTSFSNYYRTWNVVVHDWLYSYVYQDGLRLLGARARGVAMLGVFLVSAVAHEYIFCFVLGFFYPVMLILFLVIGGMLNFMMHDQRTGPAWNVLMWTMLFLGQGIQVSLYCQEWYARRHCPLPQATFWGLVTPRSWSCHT
Nature of the experiment: Inhibition of human SOAT2.

For the compound `CCc1cccc(CC)c1NC(=O)Nc1ccc(-c2sc(C)nc2-c2ccc(Cl)cc2)cc1`, the inhibition in experiment [1] worked out at 63.3%. Also, the “fold change (FC)” value in experiment [2] is given as 50 - 90. In experiment [3], the IC50 worked out at 4.04 µM and the pIC50 was 5.3936.
Regarding `CC(C)c1cc(C(C)C)c(CC(=O)NS(=O)(=O)Oc2c(C(C)C)cccc2C(C)C)c(C(C)C)c1` [AVASIMIBE], the “fold change (FC)” value in experiment [2] is given as 20.
On to `CCCCCCCNC(=O)Nc1ccc(-c2sc(C)nc2-c2ccc(Cl)cc2)cc1`, for which the inhibition in experiment [1] turned out to be 52.2%. Further, the “fold change (FC)” value in experiment [2] was 50 - 90. Besides, in experiment [3], the IC50 was found to be 7.85 µM and the pIC50 was found to be 5.105.
In the case of `CCCCCCCNC(=O)Nc1ccc(-c2sc(C)nc2-c2ccc(F)cc2)cc1`, the inhibition in experiment [1] amounted to 63%. In experiment [2], the “fold change (FC)” value was 50 - 90. Also, in experiment [3], the IC50 came out at 5.69 µM and the pIC50 turned out to be 5.244.
Regarding `CCCCNC(=O)Nc1nc(-c2ccc(C)cc2)c(-c2ccc(Cl)cc2)s1`, the inhibition in experiment [1] turned out to be 36.4%. Besides, in experiment [3], the IC50 turned out to be 94 µM and the negative logarithm of the IC50 (pIC50) was found to be 4.0271.
The like results for `CCc1cccc(CC)c1NC(=O)Nc1ccc(-c2nonc2-c2ccc(F)cc2)cc1` were, in that order, 44.9%, 9.73 µM and 5.011.
Turning to `CCCCCCCCCCCCNC(=O)Nc1ccc(-c2nonc2-c2ccc(C)cc2)cc1`, the inhibition in experiment [1] turned out to be 9.15%. Also, in experiment [3], the IC50 is 123 µM and the pIC50 was 3.909.
The like results for `COc1ccc(-c2nc(NC(=O)Nc3ccc(F)cc3F)sc2-c2ccc(NS(C)(=O)=O)cc2)cc1` were, in that order, 19.6%, 19 µM and 4.721.
`CCc1cccc(CC)c1NC(=O)Nc1ccc(-c2sc(C)nc2-c2ccc(F)cc2)cc1`: the inhibition in experiment [1] amounted to 46.7%. Also, in experiment [2], the “fold change (FC)” value is recorded as 50 - 90. Further, in experiment [3], the IC50 amounted to 8.4 µM and the negative-log IC50 (pIC50) is recorded as 5.075.
`COc1cc(NC(=O)Nc2ccc(-c3sc(C)nc3-c3ccc(F)cc3)cc2)cc(OC)c1OC`: the inhibition in experiment [1] was determined as 42%. Moreover, in experiment [3], the IC50 came out at 12.6 µM and the pIC50 amounted to 4.898.
As for `CCc1cccc(CC)c1NC(=O)Nc1ccc(-c2sc(C)nc2-c2ccc(C)cc2)cc1`, the inhibition in experiment [1] stood at 30.9%. In addition, in experiment [3], the IC50 stood at 30.9 µM and the negative-log IC50 (pIC50) was found to be 4.412.
The like results for `COc1ccc(-c2nc(NC(=O)Nc3ccccc3)sc2-c2ccc(Cl)cc2)cc1` were, in that order, 56.9%, 10.7 µM and 4.972.
Regarding `CCCCNC(=O)Nc1ccc(-c2sc(C)nc2-c2ccc(Cl)cc2)cc1`, the inhibition in experiment [1] amounted to 60.7%. The “fold change (FC)” value in experiment [2] is reported as 50 - 90. In experiment [3], the IC50 turned out to be 6.27 µM and the pIC50 came out at 5.202.
In experiment [4], `O=C(NCCCCCCSc1nc(-c2ccccc2)c(-c2ccccc2)[nH]1)Nc1ccc(F)cc1F` had an IC50 of 1.74 µM.
Regarding `COc1ccc(-c2nc(C)sc2-c2ccc(NC(=O)Nc3ccccc3)cc2)cc1`, the inhibition in experiment [1] came to 11.4%. Also, in experiment [3], the half-inhibitory concentration (IC50) is 94.8 µM and the pIC50 is on record as 4.0233.
The like results for `Cc1nc(-c2ccc(F)cc2)c(-c2ccc(NC(=O)Nc3c(C(C)C)cccc3C(C)C)cc2)s1` were, in that order, 42.1%, 11.8 µM and 4.926.
As to `COc1ccc(-c2nc(NC(=O)Nc3ccc(F)cc3F)sc2-c2ccc(NC(C)C)cc2)cc1`, the inhibition in experiment [1] was found to be 51.7%. In addition, in experiment [3], the IC50 worked out at 12.1 µM and the negative-log IC50 (pIC50) was 4.916.
With `CCCCCCCCCCCCNC(=O)Nc1ccc(-c2sc(C)nc2-c2ccc(F)cc2)cc1`, the inhibition in experiment [1] was determined as 34.5%. In experiment [3], the half-inhibitory concentration (IC50) is 48.6 µM and the pIC50 is reported as 4.313.
For `Cc1ccc(-c2nonc2-c2ccc(NC(=O)Nc3ccc(F)cc3F)cc2)cc1`, in that order: 13.5%, 20.1 µM and 4.697.
Consider `CCCCNC(=O)Nc1ccc(-c2nonc2-c2ccc(F)cc2)cc1`, for which the inhibition in experiment [1] was found to be 54.5%. Also, in experiment [3], the IC50 amounted to 12.3 µM and the pIC50 came out at 4.908.
Consider `CCCCNC(=O)Nc1ccc(-c2sc(C)nc2-c2ccc(F)cc2)cc1`, for which the inhibition in experiment [1] was 59.9%. For the same compound, in experiment [3], the IC50 was determined as 9.58 µM and the pIC50 is 5.0186.
`CCCCNC(=O)Nc1nc(-c2ccc(OC)cc2)c(-c2ccc(NC(C)=O)cc2)s1`: the inhibition in experiment [1] came to 39.5%. For the same compound, in experiment [3], the 50% inhibitory concentration (IC50) is 41.3 µM and the pIC50 came out at 4.384.
With `Cc1nc(-c2ccc(F)cc2)c(-c2ccc(NC(=O)Nc3ccc(F)cc3F)cc2)s1`, the inhibition in experiment [1] came to 4.97%. Moreover, in experiment [3], the concentration for half-maximal inhibition (IC50) was determined as 196 µM and the negative-log IC50 (pIC50) was found to be 3.7081.
